Assay results as given in patent US20160095923A1, “ORAL COMPOSITION COMPRISNG (+)-CATECHIN” (VALORE, priority 2013, published 2016).

Legend:
[1] = test system: rat skin; assay: Total incorporation and incorporation into collagen of 3H-proline in the skin; type: in vivo, Wistar rats; settings: 100 mg/kg by gavage for 5 days
Description: To do this, a study was carried out in vivo on a batch of 24 female Wistar rats weighing from 95 to 115 g, divided into two groups C and D, each of 12 rats. For each group, the radioactive 3H-hydroxyproline, the specific activity of which is 13.6 Ci/10^−3 mol, was administered to all the animals by intraperitoneal injection of proline-L-(5-3H) at a dose, relative to the weight of the individuals, of 1 mCi/kg, which represents an activity in terms of radioactive 3H-proline of 100 μCi/individual.
6 rats of each group received a treatment based on monomeric (+)-catechin by gavage in a proportion of 100 mg/kg for 5 days before sacrifice. […] The group C received monomeric (+)-catechin hydrochlorolysinate, while the group D received monomeric (+)-catechin ascorbolysinate.
In table 8, the level of incorporation is measured by the number of disintegrations of the radioactive 3H-hydroxyproline per minute (dpm) per mg of dry weight. The higher this number, the higher the concentration of 3H-hydroxyproline.
In this comparative example, a group E of 12 Wistar rats weighing from 95 to 115 g, in which radioactive 3H-hydroxyproline, the specific activity of which is 13.6 Ci/10^−3 mol, was administered to all the individuals by intraperitoneal injection of proline-L-(5-3H) at a dose, relative to the weight of the individuals, of 1 mCi/kg, which represents an activity in terms of radioactive 3H-proline of 100 ρCi/individual.
6 rats of each group received a treatment based on pure monomeric (+)-catechin by gavage in a proportion of 100 mg/kg for 5 days before sacrifice.
In table 9, the level of incorporation is measured by the number of disintegrations of the radioactive 3H-hydroxyproline per minute (dpm) per mg of dry weight. The higher this number, the higher the concentration of 3H-hydroxyproline.

[2] = Solubility in water; type: physicochemical
[3] = Bioavailability after oral administration in human beings (free monomeric (+)-catechin in plasma, LC-MS/MS)
Description: (§1) The experimental results described below were obtained on the basis of a study carried out in healthy human beings and in healthy Wistar rats weighing approximately 250 grams.
(§2) With regard to taking the blood samples from the rats and from the human beings, the blood was collected in tubes internally coated with EDTA and was then centrifuged at 3000 rpm (revolutions per minute) at ambient temperature for 45 min, and then for 15 min at a temperature of 4° C. The plasma was then collected and stored at −70° C. before analysis.
(§3) The analytical technique (LC-MS/MS for Liquid Chromatography coupled to tandem Mass Spectrometry) for measuring the active substance in the blood was based on the method described by Mata-Bilbao et al., published in 2007 in the Journal of Agricultural and Food Chemistry, volume 55, page 8857.
(§4) The free (+)-catechin was extracted from the plasma with a solution of phosphoric acid, EDTA and ascorbic acid and was then purified by SPE (solid phase extraction); in particular, it is an Oasis™ HLB extraction which is analyzed by LC-MS/MS. The quantification was carried out according to a standard calibration procedure with (+/−)-catechin-2,3,4-^13C3 as internal standard (SI).
This complex salt is administered to a group A of 5 healthy volunteers.
This ct parameter makes it possible to calculate, from the data of table 1, the bioavailability of the (+)-catechin expressed in ng h/ml.

[4] = Bioavailability after oral administration or intravenous injection in Wistar rats (free/total polyphenol in plasma, LC-MS/MS); settings: per os
Description: as §1
An acclimation period was observed before beginning the experiments.
The rats received an administration per os of a volume of 5 ml of a solution of active product.
as §2, §3, §4
The procedure is identical with regard to the extraction and the quantification of free quercetin or ECGC in the blood.
With regard to the extraction and quantification of the total (+)-catechin, the procedure is the same as that applied to the free (+)-catechin, with the exception of the fact that an additional step prior to the purification by SPE is carried out.
Each of the mixtures is then solubilized in water.
Each of the mixtures is solubilized in water.

[5] = group B, oral 1 g pure catechin, free catechin
[6] = free catechin, dose equivalent to 100 mg/kg catechin, 5 rats
[7] = free catechin, equivalent to 25 mg/kg, 3 rats (comparative example 4)
[8] = free catechin, equivalent to 25 mg/kg, 5 rats, mixture dissolved in water (comparative examples 6-9)
[9] = total (+)-catechin, equivalent to 25 mg/kg, 3 rats

Oc1cc(O)c2c(c1)O[C@H](c1ccc(O)c(O)c1)[C@@H](O)C2 [CP, (+)-catechin]
increase in the level of incorporation versus control [1]: +16% | level of incorporation into collagen (IC) of 3H-hydroxyproline in rat skin ([1]; treated subgroup): 1124 ± 51 dpm/mg | level of total incorporation (IT) of 3H-hydroxyproline in rat skin ([1]; treated subgroup): 5689 ± 410 dpm/mg | solubility in water ([2]; at 20° C.): 0.9 g per liter | solubility in water, times lower than in the form of a complex ([2]; pure catechin versus complex with basic amino acid): 400 times | plasma concentration (cc) of free monomeric (+)-catechin ([3]; group B, oral 1 g pure catechin, T 0.5 h): 59 ± 61 ng/mL | plasma concentration (cc) of free monomeric (+)-catechin ([3]; group B, oral 1 g pure catechin, T 1 h): 266 ± 147 ng/mL | plasma concentration (cc) of free monomeric (+)-catechin ([3]; group B, oral 1 g pure catechin, T 2 h): 230 ± 87 ng/mL | plasma concentration (cc) of free monomeric (+)-catechin ([3]; group B, oral 1 g pure catechin, T 3 h): 226 ± 38 ng/mL | plasma concentration (cc) of free monomeric (+)-catechin ([3]; group B, oral 1 g pure catechin, T 4 h): 128 ± 51 ng/mL | plasma concentration (cc) of free monomeric (+)-catechin ([3]; group B, oral 1 g pure catechin, T 6 h): 27 ± 13 ng/mL | T (max) [3, 5]: 1.20 h | ct (total concentration, area under curve over 6 h) [3, 5]: 904 ± 163 ng·h/mL | c (max) ([3]; oral 1 g pure catechin, free catechin): 280 ng/mL | T (max) ([3]; oral, humans, as stated in summary text): 1.33 h | c (max) related to 0.92 g of pure (+)-catechin ([3]; oral, scaled from 1 g to 0.92 g dose): 258 ng/mL | ct related to 0.92 g of pure (+)-catechin ([3]; oral, scaled from 1 g to 0.92 g dose, listed as pure (+)-catechin): 832 ± 150 ng·h/mL | Δct (difference of ct to CP) ([4]; free catechin, dose equivalent to 100 mg/kg catechin): 0% | T (max) [4, 6]: 60 min | c (max) [4, 6]: 716 ng/mL | ct [4, 6]: 96 238 ng min/ml | Δct (difference of ct to CP) ([4]; free catechin, equivalent to 25 mg/kg (comparative example 4)): 0% | Δct (difference of ct to CP) ([4]; free catechin, equivalent to 25 mg/kg (comparative examples 7-9)): 0% | T (max) [4, 7]: 30 min | c (max) [4, 7]: 154 ng/mL | ct [4, 7]: 21 145 ng min/ml | T (max) [4, 8]: 60 min | c (max) [4, 8]: 580 ng/mL | Δct (difference of ct to CP) ([4]; total (+)-catechin, equivalent to 25 mg/kg): 0% | T (max) [4, 9]: 30 min | c (max) [4, 9]: 2200 ng/mL | ct [4, 9]: 273 875 ng min/ml
